From ChEMBL document CHEMBL1201862, “PubChem BioAssay data set” (2004)
Activity calls are given as the source filed them.

Experiments:
[1] = biological target: T1, Carboxy-terminal domain RNA polymerase II polypeptide A small phosphatase 1 (Homo sapiens, UniProt Q9GZU7); assay: CTDSP1 inhibitors, concentration-response, biochemical, absorbance readout, ultra-high-throughput screen actives (AID 540297); format: functional
T1 sequence (Q9GZU7 whole entry): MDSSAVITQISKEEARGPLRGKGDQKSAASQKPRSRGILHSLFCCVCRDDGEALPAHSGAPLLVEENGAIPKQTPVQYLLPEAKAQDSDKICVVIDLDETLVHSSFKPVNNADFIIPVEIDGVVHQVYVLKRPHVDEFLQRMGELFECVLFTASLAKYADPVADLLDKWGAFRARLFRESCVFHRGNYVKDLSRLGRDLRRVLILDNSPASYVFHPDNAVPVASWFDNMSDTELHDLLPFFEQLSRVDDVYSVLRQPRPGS

[2] = biological target: Glucose-6-phosphate 1-dehydrogenase (Homo sapiens, UniProt P11413); assay: inhibition of Homo sapiens G6PD, dose series – biochemical, fluorescence, selectivity assay for P. falciparum G6PD inhibitor project, dose response (AID 504792); format: functional
Chain of Glucose-6-phosphate 1-dehydrogenase (P11413 whole entry): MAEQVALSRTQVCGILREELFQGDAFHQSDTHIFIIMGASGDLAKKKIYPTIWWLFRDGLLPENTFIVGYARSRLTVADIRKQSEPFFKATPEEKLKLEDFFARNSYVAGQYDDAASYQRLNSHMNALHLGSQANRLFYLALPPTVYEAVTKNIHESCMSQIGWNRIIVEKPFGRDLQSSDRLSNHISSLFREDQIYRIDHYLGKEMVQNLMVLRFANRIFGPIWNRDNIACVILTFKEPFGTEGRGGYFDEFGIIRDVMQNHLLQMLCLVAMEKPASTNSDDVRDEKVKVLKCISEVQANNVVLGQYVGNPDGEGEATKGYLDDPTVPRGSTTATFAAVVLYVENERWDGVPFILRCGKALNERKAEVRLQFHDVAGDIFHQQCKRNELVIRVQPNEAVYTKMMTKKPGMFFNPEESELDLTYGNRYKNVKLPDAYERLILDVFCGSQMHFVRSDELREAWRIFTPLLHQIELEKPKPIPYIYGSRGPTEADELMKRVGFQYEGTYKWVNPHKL

[3] = biological target: T2, Apoptotic protease-activating factor 1 (Homo sapiens, UniProt O14727); format: functional
T2 sequence (O14727 whole entry): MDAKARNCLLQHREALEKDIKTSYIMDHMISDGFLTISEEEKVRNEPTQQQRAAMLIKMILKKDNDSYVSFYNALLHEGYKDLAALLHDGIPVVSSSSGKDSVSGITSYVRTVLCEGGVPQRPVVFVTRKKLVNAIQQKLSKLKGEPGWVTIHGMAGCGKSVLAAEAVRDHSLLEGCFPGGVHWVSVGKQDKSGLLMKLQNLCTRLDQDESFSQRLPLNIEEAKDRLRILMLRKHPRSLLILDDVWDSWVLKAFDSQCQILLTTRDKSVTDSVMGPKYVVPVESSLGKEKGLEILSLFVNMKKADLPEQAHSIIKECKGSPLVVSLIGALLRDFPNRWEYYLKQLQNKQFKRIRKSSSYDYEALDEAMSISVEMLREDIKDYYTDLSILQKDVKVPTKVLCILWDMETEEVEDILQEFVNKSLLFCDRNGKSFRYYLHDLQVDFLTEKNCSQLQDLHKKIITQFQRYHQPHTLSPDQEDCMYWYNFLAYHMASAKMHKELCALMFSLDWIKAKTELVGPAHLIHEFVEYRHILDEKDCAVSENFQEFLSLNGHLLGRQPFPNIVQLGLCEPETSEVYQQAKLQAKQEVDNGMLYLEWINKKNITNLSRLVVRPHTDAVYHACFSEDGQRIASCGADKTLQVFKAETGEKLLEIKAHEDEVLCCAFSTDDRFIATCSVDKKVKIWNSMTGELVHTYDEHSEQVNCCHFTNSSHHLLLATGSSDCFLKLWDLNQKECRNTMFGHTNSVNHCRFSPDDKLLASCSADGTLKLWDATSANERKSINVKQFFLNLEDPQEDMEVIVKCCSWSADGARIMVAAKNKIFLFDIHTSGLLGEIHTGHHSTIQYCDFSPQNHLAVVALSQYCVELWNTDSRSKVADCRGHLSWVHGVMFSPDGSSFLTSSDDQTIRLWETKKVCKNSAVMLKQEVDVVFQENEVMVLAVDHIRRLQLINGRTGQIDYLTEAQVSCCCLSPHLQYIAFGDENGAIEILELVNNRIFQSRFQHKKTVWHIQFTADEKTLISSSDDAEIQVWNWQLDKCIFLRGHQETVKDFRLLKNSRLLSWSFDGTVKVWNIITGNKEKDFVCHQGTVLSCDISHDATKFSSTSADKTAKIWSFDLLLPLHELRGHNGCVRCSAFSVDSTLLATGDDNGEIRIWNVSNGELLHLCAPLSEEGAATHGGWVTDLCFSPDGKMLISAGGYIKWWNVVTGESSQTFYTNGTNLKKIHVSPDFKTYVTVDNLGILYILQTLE

[4] = biological target: Heat shock protein HSP 90-alpha (Homo sapiens, UniProt P07900); format: functional, organism-based
[5] = Vero E6 cell cytotoxicity, dose response, cytotoxicity control for non-replicating M. tuberculosis project, secondary assay (AID 492998); format: functional, VeroE6; details: Vero C1008
[6] = THP-1 cell cytotoxicity, dose response, cytotoxicity control for non-replicating M. tuberculosis project (AID 489025); format: functional
[7] = Luminescence Cell-Based Dose Response HTS to Identify Inhibitors of 5'UTR Stem-Loop Driven Prion Protein mRNA Translation in H4 Neuroglioblastoma Cells. [Related pubchem assays: 1827 (Project Summary), 1813 (Primary HTS)]; format: functional
[8] = HepG2 cell cytotoxicity, dose response, cytotoxicity control for non-replicating M. tuberculosis project (AID 489018); format: functional; details: Mycobacterium tuberculosis
[9] = luciferase reporter signal suppression in cells – H4 neuroglioma cells, luminescence, dose response (AID 1990); format: functional, cell-based
[10] = alpha-synuclein stem-loop luciferase translation blockers – H4 neuroglioma cells, luminescence, confirmation (AID 1988); format: functional, cell-based
[11] = cells; format: functional
[12] = biological target: Nonstructural protein 1 (Influenza A virus, UniProt Q194T2); format: functional, Influenza A virus (A/California/07/2009(H1N1))
Chain of Nonstructural protein 1 (Q194T2 whole entry): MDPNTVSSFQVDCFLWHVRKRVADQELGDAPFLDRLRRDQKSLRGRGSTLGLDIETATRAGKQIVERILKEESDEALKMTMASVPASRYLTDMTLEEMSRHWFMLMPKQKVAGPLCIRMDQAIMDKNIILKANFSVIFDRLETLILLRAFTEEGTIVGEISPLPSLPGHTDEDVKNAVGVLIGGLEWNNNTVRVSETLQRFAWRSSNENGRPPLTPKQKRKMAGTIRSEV

[13] = NIH3T3 cell viability loss – ATP luminescence, mouse fibroblasts, counter-screen, dose response (AID 2010); format: functional, cell-based; details: NIH3T3;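 further: cells exposed to compound for about 90 hours before reading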
[14] = NIH-3T3 fibroblast cytotoxicity, dose response, cytotoxicity control, cell-based, fluorescence, Alamar Blue, secondary assay (AID 2327); format: functional;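 further: NIH-3T3 mouse fibroblasts cultured with fluconazole at 8 µg/mL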
[15] = Trypanosoma cruzi growth suppression in host cells – NIH3T3 host cells, beta-gal luminescence, confirmation (AID 2044); format: functional, cell-based;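 further: intracellular parasites grown in NIH/3T3 mouse fibroblasts as host cells; luminescent beta-galactosidase reporter signal from transgenic T. cruzi replicating inside host cells; inhibitors lower the luminescence signal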
[16] = cells; format: functional, cell-based
[17] = viability of PTEN-deleted HCT116 cells – cell-based, HCT116 PTEN knockout, dose response (AID 1047); format: functional;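 further: HCT116 colon tumor cells with PTEN knocked out; cells exposed to compound for 60 hours before readout; potency for loss of cell viability measured by luminescence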
[18] = viability of HCT116 lacking mutant beta-catenin – cell-based, human colon tumor, dose response (AID 1045); format: functional;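 further: HCT116 colon tumor cells with beta catenin knocked out; cells exposed to compound for 60 hours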
[19] = cells; format: functional, cell-based; remark: listed apart in the source
[20] = fluconazole-exposed Candida albicans growth modulators – fluorescence, retest, confirmation (AID 2467); format: functional, cell-based
[21] = biological target: T3, Streptokinase A (Streptococcus pyogenes serotype M1, UniProt P10520); assay: viability-normalized secreted streptokinase activity reduction – plasminogen activation absorbance, OD405, dose response (AID 1914); format: functional, Streptococcus pyogenes M1 GAS;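 further: secreted streptokinase activity via plasminogen activation per viability signal from cell pellet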
T3 sequence (P10520 whole entry): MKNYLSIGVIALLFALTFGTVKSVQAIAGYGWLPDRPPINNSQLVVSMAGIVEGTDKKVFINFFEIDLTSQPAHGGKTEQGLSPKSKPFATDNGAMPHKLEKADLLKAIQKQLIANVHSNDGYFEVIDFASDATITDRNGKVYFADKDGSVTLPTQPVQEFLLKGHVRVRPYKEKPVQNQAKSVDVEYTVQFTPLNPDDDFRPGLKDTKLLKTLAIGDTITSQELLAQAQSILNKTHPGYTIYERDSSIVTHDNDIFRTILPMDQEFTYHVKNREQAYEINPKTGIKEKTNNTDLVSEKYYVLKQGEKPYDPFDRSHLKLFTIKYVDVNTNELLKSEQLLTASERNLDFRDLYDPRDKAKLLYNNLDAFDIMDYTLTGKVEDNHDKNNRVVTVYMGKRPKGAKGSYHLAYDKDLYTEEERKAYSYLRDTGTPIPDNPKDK

[22] = system: Streptococcus sp. 'group A'; assay: Streptococcus pyogenes SK(-)GAS viability under kanamycin – luminescence, BacTiterGlo, confirmation, counter-screen for streptokinase expression inhibitor project, dose response (AID 1900); format: functional, organism-based; details: Streptococcus sp. 'group A'
[23] = system: Streptococcus; assay: GAS UMAA2166 growth inhibition – luminescence, BacTiterGlo, counter-screen for streptokinase expression inhibitor project, dose response (AID 1915); format: functional, organism-based; details: Streptococcus;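 further: potency for reduction of bacterial viability or growth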
[24] = system: INS1; assay: INS-1E survival protection against cytokine death – cell-based, luminescence, retest, dose response (AID 449756); format: functional; details: Rattus norvegicus;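 further: cell death triggered by IL-1 beta plus TNF-alpha plus IFN-gamma mixture; protective hits raise ATP signal compared with cytokine alone wells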
[25] = microbe, parasite or virus in culture; format: functional; details: Mycobacterium tuberculosis
[26] = biological target: T4, Corticotropin-releasing factor receptor 2/Corticotropin-releasing factor-binding protein (Homo sapiens, UniProt P24387+Q13324); assay: Dose Response confirmation of uHTS hits for small molecule antagonists of the CRF-binding protein and CRF-R2 receptor complex.; format: functional; details: read-out: IC50_Mean
T4 sequence (Q13324 whole entry): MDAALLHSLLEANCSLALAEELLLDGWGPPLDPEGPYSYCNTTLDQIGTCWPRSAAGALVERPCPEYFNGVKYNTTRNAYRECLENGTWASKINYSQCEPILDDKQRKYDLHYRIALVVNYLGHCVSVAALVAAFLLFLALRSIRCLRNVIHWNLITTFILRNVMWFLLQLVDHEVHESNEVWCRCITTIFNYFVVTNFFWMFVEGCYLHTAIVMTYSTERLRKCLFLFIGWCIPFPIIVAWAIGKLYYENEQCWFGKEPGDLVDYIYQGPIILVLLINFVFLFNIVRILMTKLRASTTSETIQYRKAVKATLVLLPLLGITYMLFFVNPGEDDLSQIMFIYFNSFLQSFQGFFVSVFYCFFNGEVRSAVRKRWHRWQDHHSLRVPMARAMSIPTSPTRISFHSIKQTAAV
T4 sequence (P24387 whole entry): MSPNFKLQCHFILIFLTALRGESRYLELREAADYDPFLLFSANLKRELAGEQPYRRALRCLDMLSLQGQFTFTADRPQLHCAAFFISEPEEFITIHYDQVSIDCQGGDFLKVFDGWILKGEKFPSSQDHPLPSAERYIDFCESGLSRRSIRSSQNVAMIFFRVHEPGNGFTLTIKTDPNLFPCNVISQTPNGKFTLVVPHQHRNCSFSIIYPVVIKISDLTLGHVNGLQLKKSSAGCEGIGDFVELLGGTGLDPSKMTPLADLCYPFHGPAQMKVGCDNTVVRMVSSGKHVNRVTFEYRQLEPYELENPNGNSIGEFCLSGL

[27] = biological target: T4, Corticotropin-releasing factor receptor 2/Corticotropin-releasing factor-binding protein; assay: activators of CRF receptor 2 with binding protein – uHTS hits, confirmation (AID 602473); format: functional; details: read-out: EC50_Mean

## O=C(NNC(=O)c1ccc2ccccc2c1)c1ccc(Cl)c(Cl)c1
[1]
  IC50: > 80 µM (inactive)

## CCOc1cc(NCc2ccccc2)c2ncn(C(C)C)c2c1
[2]
  IC50: > 80 µM (inactive)
[3]
  IC50: 34.7 µM (active)

## CCOC(=O)c1ccc(N2C(=O)CC(N(C)CCc3ccc(OC)c(OC)c3)C2=O)cc1 (centres undefined)
[4]
  AC50: 3.1 µM (active)

## CCC(=O)Nc1nc2ccccc2n1Cc1ccc(C)cc1
[5]
  CC50: 16.1 µM (active)
[6]
  CC50: > 40 µM (active)
[7]
  EC50: 11.8 µM (active)
[8]
  CC50: > 20 µM (active)
[9]
  EC50: 15.1 µM (active)
[10]
  EC50: 8.69 µM (active)
[11]
  IC50: 0.7 µM (active)

## Cc1cccc(C(=O)Nc2sc3c(c2C(=O)O)CCCC3)c1
[2]
  IC50: > 80 µM (inactive)

## O=C(CSc1ccccn1)Nc1ccc2c(c1)C(=O)c1ccccc1C2=O
[1]
  IC50: 3.08 µM (active)

## CC1=[N+](C)c2c(ccc3cccnc23)C1(C)C
[12]
  IC50: > 100 µM (active)

## CN1CCN(Cc2cc(COCc3ccccc3)c3cccnc3c2O)CC1
[13]
  EC50: 7.62 µM (active)
[14]
  EC50: > 150 µM (inconclusive)
[15]
  EC50: 1.37 µM (active)
[7]
  EC50: 8.1 µM (active)
[16]
  EC50: 7.14 µM (active)
[12]
  IC50: 3.98 µM (active)
[17]
  EC50: 3.11 µM (active)
[18]
  EC50: 3.23 µM (active)
[9]
  EC50: 7.01 µM (active)
[10]
  EC50: 5.83 µM (active)
[19]
  EC50: > 350 µM (not active)
[20]
  EC50: 0.8 µM (active)

## CCCc1cc(NCc2ccccn2)n2nc(C)c(-c3ccccc3)c2n1
[5]
  CC50: > 20 µM (active)
[13]
  EC50: 8.73 µM (active)
[15]
  EC50: 3.58 µM (active)
[6]
  CC50: 10.2 µM (active)
[8]
  CC50: 4.48 µM (active)
[21]
  EC50: > 150 µM (not active)
[22]
  EC50: 6.67 µM (active)
[23]
  EC50: 21.7 µM (active)
[4]
  AC50: 1.58 µM (active)
[11]
  IC50: 1.18 µM (active)

## Cc1cc(NCc2ccccn2)n2nc(C)c(-c3ccccc3)c2n1
[5]
  CC50: 13.6 µM (active)
[6]
  CC50: 6.19 µM (active)
[8]
  CC50: 3.11 µM (active)
[11]
  IC50: 3.2 µM (active)

## O=C(Cn1cnc2scc(-c3cccc([N+](=O)[O-])c3)c2c1=O)NCc1ccco1
[1]
  IC50: 3.15 µM (active)

## CC1CCN(CCc2nc3cc(NC(=O)COc4ccc(Cl)cc4)ccc3n2C)CC1
[6]
  CC50: 26.1 µM (active)
[8]
  CC50: > 20 µM (active)
[11]
  IC50: 28.1 µM (active)

## CCOc1ccccc1N1CCN(C(=O)C2c3ccccc3Oc3ccccc32)CC1
[3]
  IC50: 29.3 µM (active)

## CC(=O)Oc1c(C)cc(Cl)cc1C(=O)Nc1ccc([N+](=O)[O-])cc1Cl
[5]
  CC50: 3.96 µM (active)
[24]
  AC50: 1.37 µM (active)
[6]
  CC50: 5.03 µM (active)
[8]
  CC50: 7.96 µM (active)
[25]
  CC50: 1.54 µM (active)
[17]
  EC50: 1.99 µM (active)
[18]
  EC50: 2.16 µM (active)
[11]
  IC50: 9.46 µM (active)

## Cc1cccc(C)c1NC(=O)C(Cl)C(=O)c1ccccc1 (centres undefined)
[4]
  AC50: 0.855 µM (active)

## CN1C(=O)C(N=Nc2ccc([N+](=O)[O-])cc2)SC1=S (centres undefined)
[2]
  IC50: > 80 µM (inactive)
[26]
  IC50: < 0.368 µM (active)
[27]
  EC50: 1.69 µM (active)
[4]
  AC50: 14.5 µM (active)

## CN(C)c1ccc(N=Nc2ccc3ncccc3c2)cc1
[12]
  IC50: 20.4 µM (active)

## Cc1cccc(OCC(=O)NCC(=O)N/N=C/c2ccccc2)c1
[2]
  IC50: > 80 µM (inactive)

## N[C@@H](C(=O)N[C@@H]1C(=O)N2C(C(=O)O)=C(Cl)CS[C@H]12)c1ccccc1 [CEFACLOR ANHYDROUS]
[21]
  EC50: > 150 µM (not active)
[22]
  EC50: 0.559 µM (active)
[23]
  EC50: 1.32 µM (active)
[1]
  IC50: 7.18 µM (active)
